Source: PubChem BioAssay AID1963969 (Molecular Pharmacology Branch, DTP, NCI, 2024)
Where “and” joins values, the source holds several entries; their conditions need not be identical. Equal entries are not always repeated.

System: 817829-284-R-J1-PDC multi-cell spheroid viability
Test: Anticancer human tumor 817829-284-R-J1-PDC patient-derived colon adenocarcinoma cell line growth inhibition [PI3K]
Conditions: for viability, T/C: stronger effect = lower value; active = viability on the fitted dose curve at most 10% of control; inactive = the rest
Description: Combinatorial screen of targeted agents with the PI3K inhibitors inavolisib, alpelisib, duvelisib, and copanlisib in multi-cell type tumor spheroids
A high-throughput screen of multi-cell type tumor spheroids was designed to identify active combinations of targeted small molecules and PI3K pathway inhibitors. Complex spheroids include a stromal component modeled by human endothelial cells (HUVEC) and fibroblasts modeled by human mesenchymal stem cells (MSCs). The concentration ranges selected for each drug and investigational agent were based upon clinically achievable concentrations if the clinical Cmax of the agent was known.
Compounds. The drugs and investigational agents: inavolisib (NSC800729), alpelisib (NSC765974), duvelisib (NSC772469), copanlisib (NSC816437), ipatasertib (NSC767898), afuresertib (NSC778305), talazoparib (NSC767125), sapanisertib (NSC764658), selumetinib (NSC741078), tovorafenib (DAY101, NSC766906), vemurafenib (NSC761431), ravoxertinib (NSC781343), sotorasib (NSC818433), MRTX1133 (NSC 836407), abemaciclib (NSC 768073), palbociclib (NSC758247), venetoclax (NSC 766270), SY5609 (NSC837396), enzalutamide (NSC755605), and darolutamide (NSC825331), were obtained from the National Cancer Institute (NCI) Developmental Therapeutics Program Chemical Repository. The FDA-approved anticancer drug set is available from the NCI Developmental Therapeutics Program. […] The stock solutions were prepared in dimethyl sulfoxide (DMSO, Sigma-Aldrich, St. Louis, MO, cat. D2650) at 800-fold the tested concentration and stored at -70 degrees C prior to their use. All drugs and investigational agents were tested over a range starting from a high concentration at or near the clinical Cmax and decreasing in half-log increments. If the clinical Cmax for an agent had not been determined, the highest concentration tested was 10 microM.
Cell Culture. All cells were maintained in an incubator at 37 degrees C and 5% CO2 with 95% humidity. The PDC lines were cultured according to standard operating procedures established by the NCI PDMR (https://pdmr.cancer.gov/sops/default.htm). All PDCs were thawed and cultured in Matrigel-coated flasks prepared with a working solution of 1X Ham's F-12 nutrient mix, without supplementation (Invitrogen, Waltham, MA, cat. 11765054), 100 U/mL penicillin-streptomycin (Invitrogen, cat. 15140122), and 2.5% Matrigel (Corning Inc., Corning, NY, cat. 354248) for the first three passages. The 354836-022-R-J1-PDC, 475296-252-R-J1-PDC, and 997726-040-R-J2-PDC lines were cultured in 6A media, which includes advanced DMEM/F-12 (Thermo Fisher Scientific, cat. 12634028), 10 mM HEPES (Thermo Fisher Scientific, cat. 15630080), 1X GlutaMAX supplement (Thermo Fisher Scientific, cat. 35050061), 0.1 mg/mL primocin (InvivoGen, San Diego, CA, cat. ant-pm-2), 10% defined fetal bovine serum, heat inactivated (HyClone Laboratories Inc., Logan, UT, cat. SH30070.03HI), 50% L-WRN conditioned media (ATCC, cat. CRL-3276), 1.25 mM N-Acetyl-L-cysteine (Sigma-Aldrich, cat. A9165), 10 mM nicotinamide (Sigma-Aldrich, cat. N0636), 1X B-27 supplement (Thermo Fisher Scientific, cat. 17504044), 1X N-2 supplement (Thermo Fisher Scientific, cat. 17502048), and 10 microM Y-27632 dihydrochloride (Tocris Bioscience, Bristol, United Kingdom, cat. 1254). The 624824-186-R-J2-PDC line was cultured in 6C/Colon 1B media, which includes all 6A media components plus 50 ng/mL human EGF recombinant protein (Thermo Fisher Scientific, cat. PHG0311). […]

[1] = curve of first compound, second compound 0.00316 µM
[2] = curve of first compound, second compound 0.01 µM
[3] = curve of first compound, second compound 0.0316 µM
[4] = curve of first compound, second compound 0.1 µM
[5] = curve of first compound, second compound 0.316 µM
[6] = curve of first compound, second compound 1 µM
[7] = second compound 0.00316 µM, first compound 0.0316 µM
[8] = second compound 0.00316 µM, first compound 0.1 µM
[9] = second compound 0.01 µM, first compound 0.0316 µM
[10] = second compound 0.01 µM, first compound 0.1 µM
[11] = second compound 0.0316 µM, first compound 0.0316 µM
[12] = second compound 0.0316 µM, first compound 0.1 µM
[13] = second compound 0.1 µM, first compound 0.0316 µM
[14] = second compound 0.1 µM, first compound 0.1 µM
[15] = second compound 0.316 µM, first compound 0.0316 µM
[16] = second compound 0.316 µM, first compound 0.1 µM
[17] = second compound 1 µM, first compound 0.0316 µM
[18] = second compound 1 µM, first compound 0.1 µM
[19] = second compound 0.00316 µM, first compound 0.316 µM
[20] = second compound 0.00316 µM, first compound 1 µM
[21] = second compound 0.00316 µM, first compound 3.16 µM
[22] = second compound 0.00316 µM, first compound 10 µM
[23] = second compound 0.01 µM, first compound 0.316 µM
[24] = second compound 0.01 µM, first compound 1 µM
[25] = second compound 0.01 µM, first compound 3.16 µM
[26] = second compound 0.01 µM, first compound 10 µM
[27] = second compound 0.0316 µM, first compound 0.316 µM
[28] = second compound 0.0316 µM, first compound 1 µM
[29] = second compound 0.0316 µM, first compound 3.16 µM
[30] = second compound 0.0316 µM, first compound 10 µM
[31] = second compound 0.1 µM, first compound 0.316 µM
[32] = second compound 0.1 µM, first compound 1 µM
[33] = second compound 0.1 µM, first compound 3.16 µM
[34] = second compound 0.1 µM, first compound 10 µM
[35] = second compound 0.316 µM, first compound 0.316 µM
[36] = second compound 0.316 µM, first compound 1 µM
[37] = second compound 0.316 µM, first compound 3.16 µM
[38] = second compound 0.316 µM, first compound 10 µM
[39] = second compound 1 µM, first compound 0.316 µM
[40] = second compound 1 µM, first compound 1 µM
[41] = second compound 1 µM, first compound 3.16 µM
[42] = second compound 1 µM, first compound 10 µM
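Also: spheroids exposed to agents for seven days before readout.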
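For viability, T/C in this document: percent of vehicle DMSO control viability which is 100%.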

CC(=O)c1c(C)c2cnc(Nc3ccc(N4CCNCC4)cn3)nc2n(C2CCCC2)c1=O + CC(Nc1ccc2c(c1)OCCn1cc(N3C(=O)OCC3C(F)F)nc1-2)C(N)=O
69.7 nM: IC50 [1]
76.1 nM: IC50 [2]
13.7 nM: IC50 [5]
8.65 nM: IC50 [6]
inactive: viability, T/C (second compound 0.00316 µM, first compound 0.000316 µM) 79.4% | viability, T/C (second compound 0.00316 µM, first compound 0.001 µM) 78.4% | viability, T/C (second compound 0.00316 µM, first compound 0.00316 µM) 74.4% | viability, T/C (second compound 0.00316 µM, first compound 0.01 µM) 73.2% | viability, T/C [7] 142% | viability, T/C [8] 31.9% | viability, T/C (second compound 0.01 µM, first compound 0.000316 µM) 124% | viability, T/C (second compound 0.01 µM, first compound 0.001 µM) 74.5% | viability, T/C (second compound 0.01 µM, first compound 0.00316 µM) 107% | viability, T/C (second compound 0.01 µM, first compound 0.01 µM) 56.3% | viability, T/C [9] 58.8% | viability, T/C [10] 48.4% | viability, T/C (second compound 0.0316 µM, first compound 0.000316 µM) 73.5% | viability, T/C (second compound 0.0316 µM, first compound 0.001 µM) 80% | viability, T/C (second compound 0.0316 µM, first compound 0.00316 µM) 84.3% | viability, T/C (second compound 0.0316 µM, first compound 0.01 µM) 62.5% | viability, T/C [11] 53.4% | viability, T/C [12] 31.4% | viability, T/C (second compound 0.1 µM, first compound 0.000316 µM) 85.1% | viability, T/C (second compound 0.1 µM, first compound 0.001 µM) 86% | viability, T/C (second compound 0.1 µM, first compound 0.00316 µM) 60.1% | viability, T/C (second compound 0.1 µM, first compound 0.01 µM) 105% | viability, T/C [13] 46.8% | viability, T/C [14] 37% | viability, T/C (second compound 0.316 µM, first compound 0.000316 µM) 51.7% | viability, T/C (second compound 0.316 µM, first compound 0.001 µM) 52.2% | viability, T/C (second compound 0.316 µM, first compound 0.00316 µM) 69.7% | viability, T/C (second compound 0.316 µM, first compound 0.01 µM) 52.4% | viability, T/C [15] 38.3% | viability, T/C [16] 23.3% | viability, T/C (second compound 1 µM, first compound 0.000316 µM) 68.8% | viability, T/C (second compound 1 µM, first compound 0.001 µM) 68.7% | viability, T/C (second compound 1 µM, first compound 0.00316 µM) 53.5% | viability, T/C (second compound 1 µM, first compound 0.01 µM) 55.6% | viability, T/C [17] 29.7% | viability, T/C [18] 27.2%
28.7 nM: IC50 [4]
33.9 nM: IC50 [3]

CC(C)NCC(C(=O)N1CCN(c2ncnc3c2C(C)CC3O)CC1)c1ccc(Cl)cc1 (stereo not drawn) + COc1c(OCCCN2CCOCC2)ccc2c3n(c(=NC(=O)c4cnc(N)nc4)nc12)CCN3
active: viability, T/C [34] 8.69% | viability, T/C [38] 7.04% | viability, T/C [40] 10% | viability, T/C [41] 6.2% | viability, T/C [42] 5%
inactive: viability, T/C [7] 78.3% | viability, T/C [8] 51.8% | viability, T/C [19] 54.5% | viability, T/C [20] 30.8% | viability, T/C [21] 23% | viability, T/C [22] 15.1% | viability, T/C [9] 65% | viability, T/C [10] 49.1% | viability, T/C [23] 24.8% | viability, T/C [24] 21.6% | viability, T/C [25] 21.2% | viability, T/C [26] 10.2% | viability, T/C [11] 72.6% | viability, T/C [12] 40.6% | viability, T/C [27] 29.9% | viability, T/C [28] 21.4% | viability, T/C [29] 22.9% | viability, T/C [30] 9.33% | viability, T/C [13] 40.7% | viability, T/C [14] 23.7% | viability, T/C [31] 26.5% | viability, T/C [32] 15.4% | viability, T/C [33] 13.4% | viability, T/C [15] 20% | viability, T/C [16] 19.8% | viability, T/C [35] 23.6% | viability, T/C [36] 16.6% | viability, T/C [37] 8.4% | viability, T/C [17] 12.4% | viability, T/C [18] 12.3% | viability, T/C [39] 13.2%
230 nM: IC50 [1]
76.7 nM: IC50 [3]
< 31.6 nM: IC50 [4] | IC50 [5] | IC50 [6]
88.4 nM: IC50 [2]

Cn1ncc(Cl)c1-c1cc(C(=O)NC(CN)Cc2cccc(F)c2)sc1Cl (stereo not drawn) + CC(Nc1ccc2c(c1)OCCn1cc(N3C(=O)OCC3C(F)F)nc1-2)C(N)=O
41.6 nM: IC50 [4]
< 31.6 nM: IC50 [1] | IC50 [3] | IC50 [5] | IC50 [6]
inactive: viability, T/C [7] 73.2% | viability, T/C [8] 38.6% | viability, T/C [19] 22.8% | viability, T/C [20] 16.9% | viability, T/C [21] 16.3% | viability, T/C [22] 98.6% | viability, T/C [9] 81.4% | viability, T/C [10] 51% | viability, T/C [23] 22% | viability, T/C [24] 19.1% | viability, T/C [25] 14.4% | viability, T/C [26] 69% | viability, T/C [11] 49.4% | viability, T/C [12] 30.6% | viability, T/C [27] 14.9% | viability, T/C [28] 16.5% | viability, T/C [29] 14.7% | viability, T/C [30] 55.9% | viability, T/C [13] 56.3% | viability, T/C [14] 31.4% | viability, T/C [31] 21% | viability, T/C [32] 16.7% | viability, T/C [33] 14% | viability, T/C [34] 53.2% | viability, T/C [15] 46.4% | viability, T/C [16] 33.7% | viability, T/C [35] 16.8% | viability, T/C [36] 13.2% | viability, T/C [37] 11.9% | viability, T/C [38] 44.7% | viability, T/C [17] 34.4% | viability, T/C [18] 25.6% | viability, T/C [39] 16.7% | viability, T/C [40] 14.2% | viability, T/C [41] 12.3% | viability, T/C [42] 84.7%
106 nM: IC50 [2]

CC(Nc1ccc2c(c1)OCCn1cc(N3C(=O)OCC3C(F)F)nc1-2)C(N)=O (stereo not drawn)
inactive: viability, T/C (compound 0.00316 µM) 82.8% [middle of 6 runs]
> 1000 nM and 280 nM and 1000 nM: IC50 (compound alone, run of 04/24/2023)
